Assay [1] deals with T1, hα1A adrenergic receptor (Homo sapiens, UniProt P35348).
T1 construct: expressed in transfected cells; host or cells: Chinese hamster ovary cells (membrane preparations)
T1 sequence (P35348 1-466): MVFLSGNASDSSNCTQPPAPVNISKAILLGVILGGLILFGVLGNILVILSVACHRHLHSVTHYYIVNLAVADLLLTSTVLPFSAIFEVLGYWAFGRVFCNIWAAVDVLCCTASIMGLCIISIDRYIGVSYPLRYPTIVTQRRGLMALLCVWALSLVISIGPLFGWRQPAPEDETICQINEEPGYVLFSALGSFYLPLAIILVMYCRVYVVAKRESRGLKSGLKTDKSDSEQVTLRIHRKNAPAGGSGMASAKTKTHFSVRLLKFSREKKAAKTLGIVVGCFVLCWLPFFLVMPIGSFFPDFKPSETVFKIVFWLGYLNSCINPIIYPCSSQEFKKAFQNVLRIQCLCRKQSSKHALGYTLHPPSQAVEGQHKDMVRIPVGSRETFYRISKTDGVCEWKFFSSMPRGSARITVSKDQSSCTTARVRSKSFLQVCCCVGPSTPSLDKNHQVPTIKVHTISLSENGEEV
The experiment in a line: Radioligand binding at hα1A adrenergic receptor ([3H]prazosin). As to conditions: mean ± SD.

The target in assay [2] is T2, h5-HT1A receptor (Homo sapiens, UniProt P08908).
T2 construct: expressed in transfected cells; host or cells: HEK 293 cells (membrane preparations)
T2 sequence (P08908 1-422): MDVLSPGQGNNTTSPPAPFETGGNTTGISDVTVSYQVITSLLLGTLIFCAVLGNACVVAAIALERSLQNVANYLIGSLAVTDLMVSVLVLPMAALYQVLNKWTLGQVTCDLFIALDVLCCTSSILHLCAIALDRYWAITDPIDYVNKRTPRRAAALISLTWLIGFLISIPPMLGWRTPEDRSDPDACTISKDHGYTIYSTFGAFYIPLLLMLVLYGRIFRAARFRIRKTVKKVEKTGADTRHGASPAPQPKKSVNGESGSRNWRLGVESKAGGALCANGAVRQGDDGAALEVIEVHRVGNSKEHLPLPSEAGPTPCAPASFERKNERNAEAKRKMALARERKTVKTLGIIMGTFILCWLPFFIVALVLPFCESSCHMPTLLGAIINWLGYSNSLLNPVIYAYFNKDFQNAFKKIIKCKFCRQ
Description: Radioligand binding at h5-HT1A receptor ([3H]8-OH-DPAT).

Assay [3] relates to humans. Conditions: ref Trachsel 2012; cited from earlier work.
In assay [4] the target is human 5-HT2A receptor (Homo sapiens, UniProt P28223). As to conditions: for Emax: NIH3T3, read-out: h5-HT2A Activation efficacy max ± SD, relative to 5-HT = 100%.
Assay [5] concerns head twitch response. Also on record: method as in Halberstadt et al. (2019). Conditions: ref Halberstadt et al. (2019); cited from earlier work.

The structures appear in SMILES notation.

Chain of human 5-HT2A receptor (P28223 whole entry): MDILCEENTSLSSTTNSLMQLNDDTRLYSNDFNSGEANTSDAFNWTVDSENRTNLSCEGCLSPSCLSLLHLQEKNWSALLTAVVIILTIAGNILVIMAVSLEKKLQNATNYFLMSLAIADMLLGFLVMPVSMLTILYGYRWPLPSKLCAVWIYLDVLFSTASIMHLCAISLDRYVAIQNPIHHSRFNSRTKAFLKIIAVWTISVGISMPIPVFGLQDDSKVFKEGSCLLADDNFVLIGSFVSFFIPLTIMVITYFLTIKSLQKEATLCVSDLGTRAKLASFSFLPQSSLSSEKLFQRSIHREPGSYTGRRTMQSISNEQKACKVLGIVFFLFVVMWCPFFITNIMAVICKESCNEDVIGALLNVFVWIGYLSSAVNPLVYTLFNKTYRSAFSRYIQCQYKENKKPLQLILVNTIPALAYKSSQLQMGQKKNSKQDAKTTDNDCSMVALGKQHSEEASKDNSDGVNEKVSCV

Broadly, the Ki is the equilibrium dissociation constant of an inhibitor or competing ligand from its target. Lower therefore signals a stronger hold on the target. In general, EC50 refers to the concentration giving half of the maximal effect. A low value points to higher potency in that assay. With `COc1cc(CCN)cc(OC)c1OC(F)(F)F` [compound 13, 4-trifluoromethoxy-3,5-dimethoxyphenethylamine], the Ki came to 3.2 µM in assay [1] and 2.2 µM in assay [2]. Moreover, the “Increase in human potency compared to mescaline (5)” value in assay [3] is above 9 fold. In assay [4], this molecule showed an EC50 of 0.28 ± 0.12 µM.

`COc1cc(CC(C)N)cc(OC)c1OC(F)F` (stereo not drawn) [compound 14, 4-difluoromethoxy-3,5-dimethoxyamphetamine]: the Ki in assay [1] is above 8.7 µM; in assay [2], above 5.6 µM. In assay [4], the EC50 was found to be 0.076 ± 0.04 µM.

In assay [1], `COc1cc(CCN)cc(OC)c1OCC(F)(F)F` [compound 18, 3,5-dimethoxy-4-(2,2,2-trifluoroethoxy)phenethylamine] returned a Ki above 8.7 µM. In addition, the inhibition constant Ki in assay [2] is above 5.6 µM. Further, in assay [4], the EC50 is 0.96 ± 0.05 µM and the Emax is 44 to 78%.

Turning to `COc1cc(CCN)cc(OC)c1OC(CF)CF` [compound 23, 3,5-dimethoxy-4-(1,3-difluoroprop-2-yloxy)phenethylamine], the Ki in assay [1] was above 8.7 µM; in assay [2] it was above 5.6 µM.

Consider `COc1cc(CCN)cc(OC)c1OCCCF` [compound 25, 3,5-dimethoxy-4-(3-fluoropropoxy)-phenethylamine], for which the Ki in assay [1] was above 8.7 µM; in assay [2], above 5.6 µM. This molecule also showed an EC50 in assay [4] of 4.5 µM. The Emax in assay [4] was in the range of 85 to 94%.

Consider `COc1cc(CCN)cc(OC)c1OCCC(F)(F)F` [compound 26, 3,5-dimethoxy-4-(3,3,3-trifluoropropoxy)phenethylamine], for which the inhibitory constant (Ki) in assay [1] is above 8.7 µM; in assay [2], above 5.6 µM. The EC50 in assay [4] was 4.9 µM.

The molecule `CCCOc1c(OC)cc(CC(C)N)cc1OC` (stereo not drawn) [compound 28, 3,5-dimethoxy-4-propyloxyamphetamine] gave a Ki in assay [1] above 8.7 µM. For the same molecule, in assay [5], the Head twitch response entry is given as “induced a head twitch response with almost identical potency”. The same molecule gave a Ki in assay [2] above 5.6 µM. In addition, in assay [4], the EC50 came to 0.16 ± 0.02 µM and the Emax fell in the range of 86 to 102%.

Regarding `COc1cc(CCN)cc(OC)c1OC1CC1` [compound 29, 4-cyclopropyloxy-3,5-dimethoxyphenethylamine], the Ki in assay [1] is above 8.7 µM; in assay [2], 4 µM. In assay [4], the EC50 is 2.6 µM. Moreover, the Emax in assay [4] fell in the range of 85 to 94%.

In turn, `C=C(C)COc1c(OC)cc(CCN)cc1OC` [compound 32, 3,5-dimethoxy-4-methallyloxyphenethylamine] displayed a Ki in assay [1] above 8.7 µM. The same molecule returned a Ki in assay [2] of 5.1 µM. In addition, in assay [4], a half-maximal response (EC50) required 0.079 ± 0.012 µM and the Emax was in the range of 85 to 94%.

As to `COc1cc(CCN)cc(OC)c1OCc1ccccc1` [compound 33, 4-benzyloxy-3,5-dimethoxyphenethylamine], the figures for the Ki in assay [1] and in assay [2] were above 8.7 µM and 4.4 µM, respectively. Besides, the EC50 in assay [4] turned out to be 0.027 ± 0.008 µM.

These data come from article PMC8865417, “Receptor Interaction Profiles of 4-Alkoxy-3,5-Dimethoxy-Phenethylamines (Mescaline Derivatives) and Related Amphetamines” (Frontiers in Pharmacology, 2022).
